Test results taken from patent US9376499B2, “PAR-1 activation by metalloproteinase-1 (MMP-1)” (Tufts Medical Center, Inc., priority 2009, dated 2016).
Non-standard residues stand in square brackets, D forms with d. Residues, ends and D or L forms follow the SMILES beside them. No end group written: not given here. *: point of attachment. 4Abz = Nc1ccc(C(=O)O)cc1; NHOH = ON*

Tests used:
[1] = Carotid artery FeCl3 injury arterial thrombosis model; format: in vivo, guinea pig; conditions: for prolongation of the mean occlusion time: P1pal-7 alone 0.3 mg/kg, FN-439 alone 2.0 mg/kg i.v.
Text: To assess the efficacy on arterial thrombosis by blockade of thrombin, MMP-1, or PAR1, a standard carotid artery FeCl3 injury model was used in guinea pigs. FeCl3 causes denudation of the artery and exposure of type I collagen and other subendothelial matrix proteins. The effects of blocking thrombin with bivalirudin, MMP-1 with FN-439, and PAR1 with either the small molecule antagonist RWJ-56110 or the P1pal-7 pepducin on arterial thrombosis were then compared using a dopier probe.
For these arterial thrombosis experiments, 10 min after i.v. administration of vehicle (−), bivalirudin, RWJ-56110, P1 pal-7 or FN-439 (n=4-5) through the jugular vein at the indicated concentrations, the right carotid arteries were injured for 20 min using a 24 mm^2 piece of Bio-Rad Trans-Blot paper soaked in 20% FeCl3. Arterial flow 5 mm distal to the site of injury was measured with a 0.5 V Doppler probe (Transonic Systems). An arterial occlusion was defined as a flow rate of <0.01 V for ≧5 min. Doppler measurements were terminated at the 30 min time point following injury (* designates p<0.05).

platelets = experiment: Platelet thrombus formation on collagen surface under arterial flow, heparin-anticoagulated whole blood; format: cell-based, human; conditions: heparin 10 U/mL; shear rate 1,000 s-1; FN-439 3 μM, RWJ-56110 1 μM, pepducins 3 μM, aspirin 1 mM
Procedure: Following incubation with inhibitors, the blood was perfused over a glass slide coated with fibrillar collagen type I.
A flow chamber (Glycotech) with Type-I fibrillar collagen-coated glass slides was mounted on the stage of an IMT-2 inverted microscope (Olympus) equipped with Retiga 1300 digital camera (QImaging) and 40× objective. One of the flow chamber inlets was connected to a syringe pump (Harvard Apparatus) calibrated to create a shear rate of 1,000^s-1. The whole blood pretreated with the various pharmacologic inhibitors was then perfused over the collagen-coated glass slide. After 2-15 min of perfusion, blood was removed from the flow chamber by gentle displacement with PIPES buffer and images of 8-10 fields were acquired using OpenLab software (Improvision). Acquired images were further analyzed using NIH Image 1.63 software. Images were first sharpened and the edges of separate platelets and platelet aggregates were determined. Following the adjustment of threshold, images were converted into the binary format, and the particle analysis function was activated to highlight the regions covered by platelets with the sensitivity set to one single adherent thrombocyte. For the conversion of pixels into square micrometers, a calibration curve was built using 2.5, 6, 20, 25, and 45 μm polystyrene beads (Polyscience) using acquisition conditions identical to the experimental. The mean area of formed thrombus was determined at 7 min. Area measurements in FIG. 6B represent the mean±s.e. of three separate experiments from five different blood donors.

[2] = Atherosclerotic lesion area in ApoE-deficient mice (en face Oil-Red-O); format: in vivo, mouse; conditions: high-fat diet 15 weeks, s.c. 6 days a week, FN-439 5 mg/kg, P1pal-7 10 mg/kg; for mean lesion area, abdominal section of the aorta: vehicle 8.9%; for mean lesion area, aortic section, % of the total area: vehicle 12.9%
Procedure: Twenty five (25) 86.129P2-Apoe^fm1Unc/J mice, 7 weeks old, were separated into 3 groups and fed ad libitum with high-fat/high-cholesterol diet (21% fat, 0.21% cholesterol) (0120798, Research Diets) for 15 weeks. Group I included 8 mice (n=8) was used as a control group and received Vehicle (20% DMSO in 1×PBS). Group II included 8 mice (n=8) that were treated with MMP Inhibitor I FN-439 (Calbiochem) at a dose of 5 mg/kg. Lastly, group III included 9 mice (n=9) treated with 10 mg/kg of the P1pal-7 pepducin lipopeptide. […] P1pal-7 is a cell-penetrating pepducin lipopeptide based on the third intracellular loop (i3) of human PAR1 and acts as an antagonist of PAR1 signaling. All mice were injected subcutaneously with 100 μl of the corresponding treatment for 6 days a week. At the end of the treatment, and after a 4 hours fasting, the mice were anesthetized with ketamine/xylazine and pressure-fixed with 10% formalin. The heart and the aorta of each mouse were isolated, removed and fixed for 2 days in 10% formalin and adventitial fat was removed. The abdominal area of the aorta was cut and used for whole mount immunohistochemistry. The “aortic arch/thoracic” area and the rest of the “abdominal/iliac” area of the aorta were cut open and pinned on dissecting black wax and used for “en face” staining with Oil-Red-O.
To study the extent of artherosderotic plaque formation, pinned aortas were first fixed in 10% formalin and kept in 1×PBS. The aorta of the mice were then subjected to “en face” staining with Oil-Red-O, which stains lipids red. Briefly, the PBS was drained from the samples and the stain solution was added for 45 min. The stain was drained and the samples were washed first with 70% Ethanol and then with water, in order to remove the background. Digital pictures of the stained aortas were taken and the MetaXpress software (Molecular Devices) was used to define and quantify the total aortic area as well as the lesion areas. The ratio of lesion area to the total aortic area was calculated for the “aortic arch/thoracic” and the “abdominal/iliac” area. The aorta of each mouse was isolated and separated into three sections. The abdominal section (before and after the renal arteries) was separated and used for whole mount immunohistochemistry. The remaining sections were the one from the aortic arch to the mesenteric artery (aortic) and the other from after the renal arteries to the iliac arteries (abdominal). These sections of the aorta were used for the “en face” staining and the estimation of the atherosclerotic lesion area.

[3] = Angiogenesis in adventitia of abdominal aorta of ApoE-/- mice (CD31 whole mount immunostaining); format: in vivo, mouse; conditions: 15 weeks
Procedure: Angiogenesis may promote the progression of atherosclerosis and contribute to plaque instability and rupture. […] Angiogenesis was therefore evaluated in the adventitia of aortas from apoE−/− mice fed a high fat diet for 15 weeks and treated with either the MMP-1 collagenase inhibitor, MMP Inh-1 (FN-439) or the PAR1 antagonist, P1pal-7. The mice were then anesthetized with Ketamine/Xylazine and pressure fixed with 10% formalin. The abdominal aorta was isolated, removed and fixed for 1 hour with 10% formalin and adventitial fat was removed. The abdominal aorta were then whole mount immunostained for CD31, a marker for endothelial cells and 3D projection images were constructed from multiple confocal sections using the following procedure. Briefly, the tissue was blocked for 1 hour with 5% goat serum in Tris buffered saline containing 0.3% Triton-X 100 (TBST) and incubated overnight at 4° C. with primary antibody diluted 1:1000 in TBST. After several washes with TBST, the tissue was incubated with fluorescently tagged secondary antibody diluted in TBST for 4 hours. The tissue was washed and post-fixed with 4% paraformaldehyde for 10 minutes. The aorta was then cut lengthwise and splayed open onto a microscope slide with the adventitial side up. The tissue was whole mounted with Vectashield mounting media and imaged using a Leica TCS SP2 confocal microscope […]. Confocal images were constructed into 3D projections of Z-stacks. Quantification of images was performed using NIH ImageJ. Antibodies used were: hamster anti-mouse PECAM-1 (Chemicon) and Cy3-anti-hamster (Jackson Immunolabs).

Row | Compound | prolongation of the mean occlusion time [1] | attenuation of growth rate and size of platelet aggregate strings (platelets) | mean lesion area, abdominal section of the aorta [2] | mean lesion area, aortic section, % of the total area [2] | amount of CD31-positive vessels [3] | number of branch points per vessel area [3] | number of vascular bundles in the adventitia of the aorta [3] | additional prolongation of arterial occlusion time in combination ([1]; 0.13 mg/kg P1pal-7 supplemented with 0.18 mg/kg bivalirudin)
1 | CC(C)C[C@@H](NC(=O)[C@@H]1CCCN1C(=O)CNC(=O)c1ccc(N)cc1)C(=O)N[C@H](C)C(=O)NO [FN-439] (H-[4Abz]GP[dL][dA]-{NHOH}) | 90% | ~75% | 4.1% | 10.7% | significantly reduced | significantly inhibited | significantly reduced | –
2 | P1pal-7: PAR1 i3 loop pepducin lipopeptide, KKSRALF (SEQ ID NO. 2), palmitate (also: palmitate, site not given here) | 80% | ~75% | 2.3% | 8.1% | significantly reduced | significantly inhibited | significantly reduced | no additional prolongation
